Laboratory results published in paper PMC3510080, “Identification of Compounds with Anti-Proliferative Activity against Trypanosoma brucei brucei Strain 427 by a Whole Cell Viability Based HTS Campaign” (PLoS Neglected Tropical Diseases, 2012).
Where two headings read alike, the source gives them in different places.

Legend:
[1] = test system: HEK293 cells; assay: HEK293 Alamar Blue viability estimation assay; assay type: cell-based, human; conditions: pentamidine 1 µM, diminazene 40 µM
Protocol: (§1) T.b. brucei lister 427 cells were maintained in log phase growth in 25 cm^2 tissue culture flasks (Corning, NY, USA) by sub-culturing at either 24 or 48 hour intervals. Cells were grown in HMI-9 medium, supplemented with 10% fetal calf serum (FCS) and 100 IU/ml penicillin/streptomycin (Invitrogen, Carlsbad, California, USA) with incubation at 5% CO2 at 37°C in humidified conditions. HEK293 cells were maintained in high glucose DMEM with L-glutamine, supplemented with 1× non-essential amino acids (NEAA; Invitrogen, USA) and 1 mM sodium pyruvate. Growth conditions were in 5% CO2 at 37°C, under humidified conditions.
Cells at 80% confluence were harvested and diluted in growth medium (high glucose DMEM supplemented with 10% FCS) to 7.27×10^4 cells/ml. Under sterile conditions, 55 µl of diluted cells per well were added to a black, clear bottomed 384-well lidded plate (BD Biosciences, Bedford, MA, USA) with a Multidrop liquid handler (Thermo Scientific, Barrington, IL, USA). Incubation times, compound additions and plate read were as per the trypanosome viability assay, with the exception that Alamar Blue was diluted in HEK293 growth media before addition, and incubation of Alamar Blue at 37°C, in 5% CO2, was for 4 hours, followed by incubation at room temperature for 20 hours. The activity of compounds against HEK293 cells was used to calculate the SI of mammalian to T.b. brucei cells. The control compound for HEK293 cells was puromycin (Calbiochem, USA).
Compounds identified from primary screening were retested against both T.b. brucei and HEK293 cells in duplicate and at varying concentrations to obtain a dose-response curve. Thus, a 5 µl sample of fresh compound stock solution (5 mM in DMSO) was cherry picked into 384-well plates and diluted 1∶10 in dilution medium (high glucose DMEM without FCS). Serial dilutions of these samples were then prepared in the same media by a Minitrak robotic liquid handler (Perkin Elmer, USA). […] A screening dose of 10.4 µM was included in the dilution series to enable reconfirmation of primary screening T.b. brucei activity.
The DMSO working concentration in the serial dilutions was maintained at 5%, giving a final assay concentration of 0.42% DMSO, except for the 41.7 µM test compound solution, where as previously stated the corresponding DMSO concentration was 0.83% v/v. […] Therefore the 41.7 µM test compound sample with 0.83% v/v DMSO was not used in the T.b. brucei assay and thus the top test compound concentration in this assay was 20.8 µM.
Compound activity in the retest campaign was calculated as percentage inhibition in relation to positive and negative controls, in the same manner as the primary screening campaign. The positive controls, pentamidine (2 µM final concentration) for T.b. brucei and puromycin (8 µM final concentration) for HEK293, were both screened in whole 384-well control plates. Whole 384-well plate controls were included after every batch of 20 compound plates, and were comprised of half a plate of negative control and half a plate of positive control. The negative control was the vehicle, […]. The negative control was also included in column 24 of each compound assay plate to determine signal variation from plate to plate and to calculate compound activity. The exception was the 41.7 µM compound dose used in the HEK293 assay. In these plates column 24 contained 0.83% DMSO as a negative control. A separate 384-well plate containing a 13 point dose-response of the reference compounds puromycin, pentamidine and diminazene, in triplicate, was also included per 20 compound test plate batch to estimate assay sensitivity.
These compounds were retested as in dose for N of three replicates, as described above for both T.b. brucei and HEK293.

[2] = test system: mammalian cell lines; conditions: cited from earlier work
[3] = test system: T.b. brucei bloodstream form lister 427; assay: T.b. brucei Alamar Blue viability estimation assay (384-well HTS, retest and rescreen); assay type: cell-based, Trypanosoma brucei brucei; conditions: for IC50: Trypanosoma brucei
Protocol: as §1
All reagent and cell additions were made with a Multidrop liquid handler (Thermo Scientific, Newington, NH, USA) under sterile conditions. Fifty-five microliters of 2000 cells/mL of T.b. brucei in HMI-9 medium were added to a black, clear-bottomed 384-well lidded plate (BD Biosciences, Franklin Lanes, NJ, USA). Cells were incubated for 24 hours at 37°C in an atmosphere of 5% CO2 before addition of 5 µl of compounds/DMSO for control wells. Compounds suspended in 100% DMSO or 100% DMSO as controls were pre-diluted 1∶21 in high glucose DMEM without FCS by using a Minitrack robotic liquid handler (PerkinElmer, Waltham, MA, USA). Five microliters of diluted sample was added to the plate to give a final DMSO concentration of 0.417% in the assay. Cells were incubated for an additional 48 hours at 37°C. Ten microliters of 70% Alamar Blue (Biosource, Bethesda, MD, USA) was added to each well (diluted in HMI-9 medium supplemented with 10% FCS) to a final concentration of 10% in the assay. The plate was incubated for two hours under the same conditions, then incubated for 22 hours in the dark at room temperature. Wells were read at 535 nm (excitation) and 590 nm (emission) wavelengths on a Victor II Wallac plate reader (PerkinElmer, USA). Specific dilutions are explained further in the primary and retest assay methodology. Reference drugs used in the assay were pentamidine (Sigma-Aldrich, St Louis, MO, USA), diminazene aceturate (Sigma-Aldrich, USA) and puromycin (Calbiochem, San Deigo, CA, USA). Pentamidine is used to treat patients with HAT and diminazene is a veterinary drug used against T.b. brucei to combat infections in cattle.
Primary screening of the library, consisting of 87,296 compounds in two hundred and forty eight 384-well plates, was undertaken in single point against T.b. brucei. Stock solutions consisted of test compound at a concentration of 5 mM in 100% DMSO. One µl of each compound stock solution was diluted by the addition of 40 µl of dilution medium (high glucose DMEM without FCS) by a multidrop liquid handler (Thermo Scientific, USA). A 5 µl sample of this diluted solution was then added to the trypanosome assay plate. The final concentration of test compound in the assay was […] and that of DMSO was 0.42% v/v. Compounds were screened over a total of 11 days, at an average of 80 plates per day, taking into consideration that the assay incubation was 3 days total. Test compounds were added to plates in batches of 20 at two hour intervals, to maintain the timing of additions and reads.
Compound activity was calculated as the percentage inhibition in relation to positive and negative controls. […] These in-plate negative controls were used in an effort to normalise compound activity in relation to any plate to plate variation in the assay signal. A whole 384-well control plate was included in each day's screening, one per 20 compound plates containing half a plate of 2 µM pentamidine for the positive assay control, and half a plate of 0.42% v/v DMSO as a negative control. The positive assay control was used to calculate compound activity for batches of 20 compound plates. As well providing the positive control data, these whole plate controls were used for the calculation of the Z' to measure the reproducibility of the assay.

N=C(N)c1ccc(/N=N/Nc2ccc(C(=N)N)cc2)cc1 [Diminazene, diminazene aceturate, reference compound]
activity in the HEK293 assay at the doses screened, rescreening [1]: neither pentamidine nor diminazene displayed activity | activity in the HEK293 assay at the doses screened, retest campaign [1]: Neither pentamidine nor diminazene displayed activity | reported SI [2]: 692 | Selectivity Index T.B ([3]; HEK293 IC50 / T.b. brucei IC50, > if less than 50% activity at 75.8 µM in HEK293): >330 | IC50 ([3]; 13 control plates, triplicate dose-response, read-out: IC50 of reference compounds, primary screening campaign): 65.4 nM | IC50 ([3]; during rescreening of resynthesized compounds, read-out: Reference Compound Activity T.B (IC50)): 121 ± 9.04 nM | IC50 ([3]; reference compounds, read-out: IC50 against T.b. brucei, retest screening campaign): 29.5 ± 5.8 nM
